The record followed here is paper PMC7782168, “Synthesis, telomerase inhibitory and anticancer activity of new 2-phenyl-4H-chromone derivatives containing 1,3,4-oxadiazole moiety” (Journal of Enzyme Inhibition and Medicinal Chemistry, 2020).

Each structure is given as a SMILES string.

One may read the IC50 as the concentration that gives 50% inhibition.

The test system of assay [1] is MDA-MB-231 (human breast cancer cell). Briefly: In vitro anticancer (antiproliferative) MTT assay, MDA-MB-231. The assay is classed as cell-based. Conditions: Homo sapiens, MDA-MB-231, mean ± SD of three experiments in triplicate. The method, then:
(§1) A375, MDA-MB-231, MGC-803, SMMC-7721, SGC-7901 and L-02 cell lines were cultured in DMEM medium supplemented with 10% (V/V) heat-inactivated fetal bovine serum (FBS) (Biological Industries, Israel) along with 100 U/mL penicillin and […] streptomycin (Beyotime, China). Cells were grown in a humidified 5% CO2 atmosphere at 37 °C and maintained in a logarithmic growth phase for all experiments.
(§2) 2.5. Anticancer assay[23]

The test system of assay [2] is SGC-7901 (human gastric cancer cell). Briefly: In vitro anticancer (antiproliferative) MTT assay, SGC-7901. The assay is classed as cell-based. Conditions: Homo sapiens, SGC-7901, mean ± SD of three experiments in triplicate. The method, then:
as §1, §2
(In general: Tetrazolium dyes change colour on reduction, which living cells bring about.)

The test system of assay [3] is MGC-803 (human gastric cancer cell). Briefly: In vitro anticancer (antiproliferative) MTT assay, MGC-803. The assay is classed as cell-based. Particulars: Homo sapiens, MGC-803, mean ± SD of three experiments in triplicate. Here is the method:
as §1, §2

A further assay has as its target T1, telomerase (Homo sapiens, UniProt O14746).
T1 construct: assayed for telomerase activity using MGC-803 cells extract; endogenous in cells; host or cells: MGC-803 cell extract
The experiment in a line: Telomerase activity assay using MGC-803 cells extract. Conditions: mean ± SD. The assay is classed as biochemical.

Assay [4] deals with A375 (human melanoma cell). The experiment in a line: In vitro anticancer (antiproliferative) MTT assay, A375. The assay is classed as cell-based. Conditions: Homo sapiens, A-375, mean ± SD of three experiments in triplicate. Here is the method:
as §1, §2

For another assay, the system named is dyskerin. The experiment in a line: Western blotting of dyskerin expression in MGC-803 cells. The assay is classed as cell-based, human. Particulars: MGC-803 cells, 3, 6, 9 µM, 48 h. Here is the method: (§3) Human MGC-803 cells were lysed with RIPA lysis buffer (Beyotime, China). Whole extracts were prepared, and protein concentration was detected using a BCA protein assay kit (Beyotime, China). The protein samples were separated by SDS-PAGE and blotted onto a PVDF membrane (Millipore Corp, Billerica, MA). After blockade of non-specific protein binding, […] blots were incubated at 4 °C for 8 h with primary antibodies. After extensive washing in TBS/Tween-20, the membranes were incubated at room temperature for 1 h with secondary antibodies. After washed in TBS/Tween-20, the blots were processed with distilled water for detection of antigen using the enhanced chemiluminescence system. Proteins were visualised with ECL-chemiluminescent kit (ECL-plus, Thermo Scientific).
(§4) Dyskerin-NOP10-NHP2, trimer proteins are the core components of telomerase, playing a key role in the stabilisation, activation and assembly of telomerase, and the loss of dyskerin function can influence telomerase activity. Dyskerin over-expression associated with a variety of tumour types has been reported. […] Meanwhile, NHP2[39] and NOP10[40], as the important components of dyskerin-NHP2-NOP10 trimer, had also been assessed together. […]
(§5) Figure 5. […] The proteins expression of Dyskerin, NOP10 and NHP2 were analysed by Western blotting. The results are expressed as relative expression against control expression. n = 3. […]
(In general: A western blot detects proteins with antibodies after separation by electrophoresis.)

For assay [5], the system named is MGC-803 cells. The experiment in a line: Apoptosis assay, Annexin V-FITC/PI flow cytometry. The assay is classed as cell-based, human. Conditions: 48 h, untreated 4.27%. Here is the method:
For cell apoptosis analysis, we employed annexin V-FITC/PI apoptosis detection kit (BestBio, China). MGC-803 cells in logarithmic growth phase were treated with compound A33 at different concentrations for 48 h. Cells were collected in cold PBS by centrifugation for 5 min at 1000 g. And then cells were re-suspended at a buffer (1 × 10^6 cells/mL), stained with FITC-labeled annexin V and PI for 20 min in the dark and immediately analysed on FACSVerse Flow Cytometer (Becton Dickinson).
To determine whether compound A33 meditated inhibition of proliferation was related with apoptosis, MGC-803 cells was selected for examination. The Annexin V-FITC/PI apoptosis detection kit was used in cell apoptosis analysis. […] This is consistent with the fact that telomerase inhibitors can induce apoptosis and thus inhibit the unlimited proliferation of tumour cells.
Figure 4. Percentage of apoptotic cells was determined in MGC-803 cells by Annexin-V FITC/PI staining. MGC-803 cells were treated with increasing concentrations of compound A33 for 48 h and stained with Annexin-V FITC/PI. Apoptotic ratio increased, accompanied with the increase of concentration. TEXT PRINTED IN THE PICTURE: A33: Q1-UL(1.08%) (3μM); Q1-UR(9.20%) (3μM); Q1-LL(87.53%) (3μM); Q1-LR(2.19%) (3μM); Q1-UL(4.60%) (6μM); Q1-UR(29.31%) (6μM); Q1-LL(38.09%) (6μM); Q1-LR(28.00%) (6μM); Q1-UL(4.54%) (9μM); Q1-UR(49.18%) (9μM); Q1-LL(8.50%) (9μM); Q1-LR(37.78%) (9μM) DOUBTS OF THE COPYIST ABOUT THIS PICTURE: A33 3μM, Q1-UR: 9.20% partly covered by plot points, first digit 9 or 8 / A33 6μM, Q1-UR: 29.31% partly covered by plot points, digits not fully certain / A33 9μM, Q1-UR: 49.18% partly covered by plot points, digits not fully certain
A general note: Flow cytometry measures light scatter and fluorescence of single cells or particles in a stream.

Assay [6] has as its system SMMC-7721 (human hepatoma cell). Briefly: In vitro anticancer (antiproliferative) MTT assay, SMMC-7721. The assay is classed as cell-based. Conditions: Homo sapiens, SMMC-7721, mean ± SD of three experiments in triplicate. Here is the method:
as §1, §2

The subject of assay [7] is human normal liver cell (L-02). Briefly: Toxicity against human normal liver cells, MTT assay. The assay is classed as cell-based. Conditions: triplicate. Here is the method:
as §1, §2
In order to determine the selective cytotoxicity of selected compounds, we subsequently conducted a proliferative inhibition assay with human normal liver cell (L-02). […] Therefore, in combination with the above points, it is quite meaningful to further explore the mechanisms of this compound.

The subject of the next assay is NHP2. The experiment in a line: Western blotting of NHP2 expression in MGC-803 cells. The assay is classed as cell-based, human. Particulars: MGC-803 cells, 3, 6, 9 µM, 48 h. The method, then:
as §3, §4, §5

The subject of the next assay is NOP10. The experiment in a line: Western blotting of NOP10 expression in MGC-803 cells. The assay is classed as cell-based, human. Conditions: MGC-803 cells, 3, 6, 9 µM, 48 h. The method, then:
as §3, §4, §5

For assay [8], the system named is MGC-803 cells. The experiment in a line: Cell cycle analysis by flow cytometry (PI staining). Particulars: 48 h. The assay is classed as cell-based, human. Here is the method:
For cell cycle analysis, cell cycle kit (Beyotime, China) was performed. MGC-803 cells were treated with compound A33 at different concentrations for 48 h. Untreated and treated cells were harvested, and then MGC-803 cells were washed three times using cold PBS. And then cells were fixed in 70% ethanol at −20 °C for 1 h. After fixation, cells were washed with cold PBS and stained with 0.5 ml of propidium iodide (PI) staining buffer, which contain […] RNase A and 50 µg/mL PI, at 37 °C for 30 min in the dark. Analyses were conducted on FACSVerse Flow Cytometer (Becton Dickinson). The experiments were repeated three times.
To verify whether cell cycle arrest leads to decrease cells proliferation, we used flow cytometric analysis to measure the effect of this compound on induction of cell cycle. […] In a word, this compound can induce cell cycle arrest at G2/M phase in a concentration-dependent manner, delaying cell cycle progression, thereby resulting in cell proliferation inhibition.
Figure 3. Cell cycle distribution induced by compound A33 was measured in MGC-803 cells. Cells were treated with compound A33 of 3, 6 and 9 μM for 48 h. Samples were analysed by flow cytometry and received results were analysed by modifit software. TEXT PRINTED IN THE PICTURE: A33: Dip G1:39.11% (3μM); Dip G2:29.46% (3μM); Dip S: 31.44% (3μM); Dip G1:35.72% (6μM); Dip G2:50.46% (6μM); Dip S: 13.82% (6μM); Dip G1:32.62% (9μM); Dip G2:55.13% (9μM); Dip S: 12.25% (9μM)

T1 sequence (O14746 whole entry): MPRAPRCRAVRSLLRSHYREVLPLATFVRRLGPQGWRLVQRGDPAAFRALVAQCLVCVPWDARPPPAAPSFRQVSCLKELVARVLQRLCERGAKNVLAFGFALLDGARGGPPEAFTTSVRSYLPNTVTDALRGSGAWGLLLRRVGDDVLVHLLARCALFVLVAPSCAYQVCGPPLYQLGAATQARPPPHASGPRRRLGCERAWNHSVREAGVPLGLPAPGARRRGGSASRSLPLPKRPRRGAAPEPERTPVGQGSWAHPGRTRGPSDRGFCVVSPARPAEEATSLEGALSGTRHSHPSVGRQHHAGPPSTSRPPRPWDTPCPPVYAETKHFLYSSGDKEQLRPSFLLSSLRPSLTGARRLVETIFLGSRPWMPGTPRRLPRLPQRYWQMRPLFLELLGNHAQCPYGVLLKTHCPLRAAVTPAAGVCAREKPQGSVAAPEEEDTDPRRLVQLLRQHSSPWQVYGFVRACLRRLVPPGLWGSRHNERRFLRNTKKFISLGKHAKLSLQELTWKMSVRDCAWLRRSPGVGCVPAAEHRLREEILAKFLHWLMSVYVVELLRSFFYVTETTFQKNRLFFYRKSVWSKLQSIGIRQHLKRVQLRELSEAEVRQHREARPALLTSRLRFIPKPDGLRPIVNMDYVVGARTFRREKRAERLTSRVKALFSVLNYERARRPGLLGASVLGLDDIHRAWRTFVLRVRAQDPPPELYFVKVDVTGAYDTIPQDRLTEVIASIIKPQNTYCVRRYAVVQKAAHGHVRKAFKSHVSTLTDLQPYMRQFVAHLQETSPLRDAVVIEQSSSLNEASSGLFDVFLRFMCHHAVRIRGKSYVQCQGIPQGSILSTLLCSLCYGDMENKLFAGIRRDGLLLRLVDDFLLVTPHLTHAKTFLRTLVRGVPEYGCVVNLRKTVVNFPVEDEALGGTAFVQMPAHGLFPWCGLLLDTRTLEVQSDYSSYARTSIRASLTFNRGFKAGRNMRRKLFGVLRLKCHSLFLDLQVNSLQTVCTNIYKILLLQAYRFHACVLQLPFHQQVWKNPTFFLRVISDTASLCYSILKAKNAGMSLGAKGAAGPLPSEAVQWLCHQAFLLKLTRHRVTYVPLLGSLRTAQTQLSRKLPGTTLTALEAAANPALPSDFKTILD
T1 sequence (O60832 2-514 partner limits assumed): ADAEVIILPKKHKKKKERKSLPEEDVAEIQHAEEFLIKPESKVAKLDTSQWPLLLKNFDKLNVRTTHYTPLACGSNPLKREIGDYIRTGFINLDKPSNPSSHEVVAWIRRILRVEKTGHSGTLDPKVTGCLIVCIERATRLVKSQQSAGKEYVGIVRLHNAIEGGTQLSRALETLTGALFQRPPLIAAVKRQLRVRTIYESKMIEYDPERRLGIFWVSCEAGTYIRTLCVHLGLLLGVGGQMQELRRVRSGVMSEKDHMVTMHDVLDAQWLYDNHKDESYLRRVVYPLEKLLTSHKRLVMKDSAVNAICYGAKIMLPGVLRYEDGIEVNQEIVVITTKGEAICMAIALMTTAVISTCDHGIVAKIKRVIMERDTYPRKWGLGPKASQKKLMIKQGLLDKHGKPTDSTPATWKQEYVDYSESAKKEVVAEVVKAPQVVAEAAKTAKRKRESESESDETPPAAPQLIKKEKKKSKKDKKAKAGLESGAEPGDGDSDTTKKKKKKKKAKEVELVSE
T1 sequence (Q9NPE3 whole entry partner): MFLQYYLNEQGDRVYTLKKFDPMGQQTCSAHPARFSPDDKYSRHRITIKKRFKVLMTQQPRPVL
T1 sequence (Q9NX24 whole entry partner): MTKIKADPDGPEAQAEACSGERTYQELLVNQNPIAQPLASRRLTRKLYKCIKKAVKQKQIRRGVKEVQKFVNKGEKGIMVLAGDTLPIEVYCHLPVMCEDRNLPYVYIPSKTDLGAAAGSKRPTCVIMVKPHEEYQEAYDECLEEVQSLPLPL
T1 sequence (Q9NY12 whole entry partner): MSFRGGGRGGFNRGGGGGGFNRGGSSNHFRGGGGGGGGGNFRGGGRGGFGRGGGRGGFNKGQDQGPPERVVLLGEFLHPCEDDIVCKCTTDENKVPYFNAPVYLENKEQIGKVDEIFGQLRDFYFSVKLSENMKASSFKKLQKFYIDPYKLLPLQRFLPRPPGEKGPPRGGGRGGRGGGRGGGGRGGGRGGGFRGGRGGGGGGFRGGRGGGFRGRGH

Consider `COc1cc(OC)c2c(=O)c(OCC(=O)Nc3nnc(/C=C/c4ccccc4)o3)c(-c3cc(OC)c(OC)c(OC)c3)oc2c1` [A33, (E)-2–(5,7-dimethoxy-4-oxo-2–(3,4,5-trimethoxyphenyl)-4H-chromen-3-yloxy)-N-(5-styryl-1,3,4-oxadiazol-2-yl)acetamide], for which the half-inhibitory concentration (IC50) was 9.89 ± 0.44 µM in assay [1]; 10 ± 0.51 µM in assay [2]; 8.76 ± 0.25 µM in assay [3]; 0.44 ± 0.09 µM against telomerase; 11.2 ± 0.69 µM in assay [4]; 9.67 ± 0.82 µM in assay [6]. Moreover, the IC50 in assay [7] is 2210 ± 170 µM. In the assay on dyskerin, the “Expression level of dyskerin protein” value is “reduced in a concentration-dependent manner”. Moreover, the “Percentage of AnnexinV-FITC binding MGC-803 cells” value with MGC-803 cells [5] (3 μM (first of increasing concentrations, Figure 4)) stood at 11.39%; in the assay on MGC-803 cells [5] (6 μM (second of increasing concentrations, Figure 4)), 57.31%; in the assay with MGC-803 cells [5] (9 μM (third of increasing concentrations, Figure 4)) it was 86.96%. Besides, the “Expression of NHP2” value with NHP2 is given as “lower level than control group”. Further, the “Expression of NOP10” value with NOP10 is listed as “lower level than control group”. Also, the “G0/G1 phase distribution (Dip G1)” value in the assay with MGC-803 cells [8] (3 μM) stood at 39.11%; with MGC-803 cells [8] (6 μM) it was 35.72%; with MGC-803 cells [8] (9 μM) it was 32.62%. For the same molecule, the “G2/M phase distribution (Dip G2)” value with MGC-803 cells [8] (3 μM) came out at 29.46%; in the assay with MGC-803 cells [8] (6 μM) it was 50.46%; in the assay on MGC-803 cells [8] (9 μM), 55.13%. The entries for the “S phase distribution (Dip S)” value in the assay on MGC-803 cells [8] (3 μM), with MGC-803 cells [8] (6 μM) and with MGC-803 cells [8] (9 μM) were 31.44%, 13.82% and 12.25%, respectively. In addition, the “Increase of the G2/M phase distribution versus untreated” value with MGC-803 cells [8] (increasing concentrations (3, 6, 9 µM), from 9.76 to 55.13%) is reported as 45.37%.
